Patent US4767778A (Institut National de la Sante et de la Recherche Medicale …, priority 1985, dated 1988)
Read-outs that look alike come from different tables or passages of the source.

Columns and labels:
H1 /H2 receptors = settings: histamine = 100%; cited from earlier work
H3 autoreceptors [1] = target: T1, H3 autoreceptors (Rattus norvegicus, UniProt Q9QYN8)
H3 receptors [2] = experiment: Inhibition of the synthesis of (3H) histamine in rats in vivo; set-up: species or system rat; settings: for (3) histamine (% of the total radioactivity × 10^-3), Treated: 10 minutes
H3 receptors [3] = experiment: Inhibition of synthesis of histamine in slices of human cerebral cortex and posterior hypothalamus; format: cell-based; settings: slices of human cerebral cortex and posterior hypothalamus (mamillary)
H3 autoreceptors [4] = target: T1, H3 autoreceptors; settings: slices of rat brain

T1 sequence (Q9QYN8 whole entry): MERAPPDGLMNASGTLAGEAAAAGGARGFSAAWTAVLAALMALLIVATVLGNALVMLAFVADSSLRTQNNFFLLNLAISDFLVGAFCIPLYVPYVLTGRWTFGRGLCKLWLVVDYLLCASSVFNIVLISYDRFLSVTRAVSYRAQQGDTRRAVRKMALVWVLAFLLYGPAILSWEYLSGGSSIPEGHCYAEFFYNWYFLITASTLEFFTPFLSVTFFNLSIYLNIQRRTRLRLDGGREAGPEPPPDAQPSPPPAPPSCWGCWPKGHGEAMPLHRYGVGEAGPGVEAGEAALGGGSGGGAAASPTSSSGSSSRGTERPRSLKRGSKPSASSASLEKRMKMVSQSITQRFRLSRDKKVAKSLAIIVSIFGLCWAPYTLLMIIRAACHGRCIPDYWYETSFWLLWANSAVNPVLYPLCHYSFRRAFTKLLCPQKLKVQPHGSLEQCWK

| EC50 (H3 autoreceptors [1]) | Activity relative to histamine (%) H3 receptors (H3 autoreceptors [1]; histamine = 100% (EC50 […] nM)) | SMILES | Activity relative to histamine (%) H1 /H2 receptors (H1 /H2 receptors) | other results |
| --- | --- | --- | --- | --- |
| 1000 ± 500 nM | 6% | C[C@](N)(Cc1c[nH]cn1)C(=O)O (racemic) [6 (R, S), α-methylhistidine] | inactive | – |
| – | – | C[C@@H](N)Cc1c[nH]cn1 [1 (R), 4-(2-aminopropyl)-imidazole] | – | effect on the synthesis of (3H) histamine in the brain and peripheral tissues (H3 receptors [2]; 10 mg/kg, simultaneous with (3H)-L-histidine, completely reversed by an H3 antagonist): significantly reduces; (3) histamine (% of the total radioactivity × 10^-3), Treated (H3 receptors [2]; Cerebral cortex, 10 mg/kg i.v. with (3H)-L-histidine, controls 95 ± 6): 53 ± 6 % of the total radioactivity ×; Variation (%) (H3 receptors [2]; Cerebral cortex, 10 mg/kg i.v., p < 0.01): -45%; (3) histamine (% of the total radioactivity × 10^-3), Treated (H3 receptors [2]; Hypothalmus, 10 mg/kg i.v., controls 272 ± 11): 185 ± 32 % of the total radioactivity ×; Variation (%) (H3 receptors [2]; Hypothalmus, 10 mg/kg i.v., p < 0.01): -32%; Variation (%) (H3 receptors [2]; Kidneys, 10 mg/kg i.v., p < 0.05): -30%; (3) histamine (% of the total radioactivity × 10^-3), Treated (H3 receptors [2]; Lungs, 10 mg/kg i.v., controls 138 ± 10): 94 ± 10 % of the total radioactivity ×; Variation (%) (H3 receptors [2]; Lungs, 10 mg/kg i.v., p < 0.05): -32%; (3) histamine (% of the total radioactivity × 10^-3), Treated (H3 receptors [2]; Spleen, 10 mg/kg i.v., controls 60 ± 8): 42 ± 5 % of the total radioactivity ×; Variation (%) (H3 receptors [2]; Spleen, 10 mg/kg i.v., p < 0.05): -30% |
| 50 ± 20 nM | 120% | CC(C)(CN)c1c[nH]cn1 [compound 4, 4-(1,1-dimethyl 2-aminoethyl)-imidazole] | < 0.1% | – |
| – | – | CC(N)Cc1c[nH]cn1 (racemic) [compound 1, 4-(2-aminopropyl)-imidazole] | – | effect on synthesis of histamine (H3 receptors [3]): inhibits |
| 20 ± 5 nM | 120% | CC(CN)c1c[nH]cn1 (racemic) [3 (R, S), 4-(1-methyl 2-aminoethyl)-imidazole] | 2-2% | – |
| – | – | NCCc1c[nH]cn1 [histamine, reference compound] | – | maximal inhibition of the stimulation by potassium of the synthesis of (3H) histamine (H3 autoreceptors [4]): approximately 70%; maximal inhibition of release of (3H) histamine (H3 autoreceptors [1]; slices of rat brain): approximately 60% |

| SMILES | EC50 (H3 autoreceptors [1]) | Activity relative to histamine (%) H3 receptors (H3 autoreceptors [1]; histamine = 100% (EC50 […] nM)) | Activity relative to histamine (%) H1 /H2 receptors (H1 /H2 receptors) | other results |
| --- | --- | --- | --- | --- |
| CC(C)(N)Cc1c[nH]cn1 [compound 2, 4-(2-methyl 2-aninopropyl)-imidazole] | 20 ± 10 nM | – | < 1% | Activity relative to histamine (%) H3 receptors (H3 autoreceptors [1]): 300% |
| NC1CC1c1c[nH]cn1 (stereo not shown) [compound 5, 2-(4-imidazolyl)-cyclopropylamine] | < 100 nM | > 60% | < 1% | – |
